Reference: patent US20230248833A1, “COMPOUND HAVING BTK KINASE DEGRADING ACTIVITY, AND PREPARATION METHOD AND PHARMACEUTICAL USE THEREFOR” (SICHUAN HAISCO PHARMACEUTICAL CO., LTD., priority 2020, published 2023)

Tested on: Mino cells
Assay: Inhibition of cell proliferation, Mino cells (Cell Viability Assay, 72 h)
Format: cell-based, human
Conditions: for IC50: Homo sapiens, MINO, 72 h; for Mino Max inhi. %: inhibition rate at the highest concentration of the compound
Procedure: SU-DHL-4, Mino, and SU-DHL-6 cells, in the culture medium of RPMI1640+10% FBS, were cultured in an incubator at 37° C. under 5% CO2. Cells were plated in a 96-well plate. Specifically, SU-DHL-4 cells were at 20000/well, Mino and SU-DHL-6 cells were at 5000/well, with 90 μL/well. 10 μL of the compounds at different concentrations were added to each well. There were 3 replicate wells for each concentration, and the last column, added with DMSO, was used as a vehicle control group. The cultures were continued for 72 hours at 37° C. under 5% CO2. After 72 hours, 100 μL of detection reagent (Cell Viability Assay, Promega, G7573) was added to each well, and the cultures were uniformly mixed for 2 minutes, and incubated at room temperature for 10 minutes. The […] signal value was measured with a microplate reader (PHERAstar FSX). The IC50 value of the compound on cell proliferation inhibition was calculated using origin9.2 software, and the inhibition rate at the highest concentration of the compound (Max inhi.%) was calculated according to formula (1).
Max inhi.%=(1−T72administration/T72vehicle)×100 Formula (1).

Row | SMILES | IC50 [nM] | Mino Max inhi. % [%]
1 | Nc1ncnc2c1c(-c1ccc(Oc3ccccc3)cc1)nn2C1CC2(CCN(C3CN(C4CN(c5ccc6c(c5)C(=O)N(C5CCC(=O)NC5=O)C6=O)C4)C3)CC2)C1 (stereo not shown) [Compound 65, 5-(3-(2-(4-amino-3-(4-phenoxyphenyl)-1H-pyrazolo[3,4-d]pyrimidin-1-yl)-7-azaspiro[3.5]nonan-7-yl)-[1,3′-biazetidin]-1′-yl)-2-(2,6-dioxopiperidin-3-yl) isoindoline-1,3-dione] | 14 | 
2 | Nc1ncnc2c1c(-c1ccc(Oc3ccccc3)cc1)nn2C1CC2(CCN(C3CC4(CCN(c5ccc6c(c5)C(=O)N(C5CCC(=O)NC5=O)C6=O)CC4)C3)CC2)C1 (stereo not shown) [Compound 66, 5-(2′-(4-amino-3-(4-phenoxyphenyl)-1H-pyrazolo[3,4-d]pyrimidin-1-yl)-7,7′-diaza[2,7′-bispiro[3.5]nonan]-7-yl)-2-(2,6-dioxopiperidin-3-yl)isoindoline-1,3-dione] | 27 | 
3 | Nc1ncnc2c1c(-c1ccc(Oc3ccccc3)cc1)nn2C1CCN(C2(C(F)(F)F)CCN(C3CN(c4ccc5c(c4)C(=O)N(C4CCC(=O)NC4=O)C5=O)C3)CC2)CC1 (stereo not shown) [Compound 70, 5-(3-(4-(4-amino-3-(4-phenoxyphenyl)-1H-pyrazolo[3,4-d]pyrimidin-1-yl)-4′-(trifluoromethyl)-[1,4′-bipiperidin]-1′-yl)azetidin-1-yl)-2-(2,6-dioxopiperidin-3-yl)isoindoline-1,3-dione] | 101 | 
4 | Nc1ncnc2c1c(-c1ccc(Oc3ccccc3)cc1)nn2C1CCN(C2CN(C3CN(C(=O)CC45CC6CC(CC(C6)C4)C5)C3)C2)CC1 [Compound 72, 2-(1-adamantyl)-1-[3-[3-[4-[4-amino-3-(4-phenoxyphenyl)pyrazolo[3,4-d]pyrimidin-1-yl]-1-piperidyl]azetidin-1-yl]azetidin-1-yl]ethanone] | 10 to 1000 | 88.5
5 | Nc1ncnc2c1c(-c1ccc(Oc3ccccc3)cc1)nn2C1CCN(C2CCN(C3CN(C(=O)CC45CC6CC(CC(C6)C4)C5)C3)CC2)CC1 [Compound 73, 2-(1-adamantyl)-1-(3-(4-(4-amino-3-(4-phenoxyphenyl)pyrazolo[3,4-d]pyrimidin-1-yl)-[1,4′-bipiperidin]-1′-yl)azetidin-1-yl)ethan-1-one] |  | 99.8
6 | Nc1ncnc2c1c(-c1ccc(Oc3ccccc3)cc1)nn2C1CCN(C2CN(C(=O)CC34CC5CC(CC(C5)C3)C4)C2)CC1 [Compound 74, 2-((3r,5r,7r)-adamantan-1-yl)-1-(3-(4-(4-amino-3-(4-phenoxyphenyl)-1H-pyrazolo[3,4-d]pyrimidin-1-yl)piperidin-1-yl)azetidin-1-yl)ethanone] |  | 88.3
7 | Nc1ncnc2c1c(-c1ccc(Oc3ccccc3)cc1)nn2C1CCC2(CC1)CN(C1CN(c3ccc4c(c3)C(=O)N(C3CCC(=O)NC3=O)C4=O)C1)C2 (stereo not shown) [Compound 75, 5-(3-(7-(4-amino-3-(4-phenoxyphenyl)-1H-pyrazolo[3,4-d]pyrimidin-1-yl)-2-azaspiro[3.5]nonan-2-yl)azetidin-1-yl)-2-(2,6-dioxopiperidin-3-yl)isoindoline-1,3-dione] | 37 | 
8 | Nc1ncnc2c1c(-c1ccc(Oc3ccccc3)cc1)nn2C1CCN(C2CN(C3CN(c4ccc5c(n4)CN(C4CCC(=O)NC4=O)C5=O)C3)C2)CC1 (stereo not shown) [Compound 76, 3-(2-(3-(4-(4-amino-3-(4-phenoxyphenyl)-1H-pyrazolo[3,4-d]pyrimidin-1-yl)piperidin-1-yl)-[1,3′-biazetidin]-1′-yl)-5-oxo-5,7-dihydro-6H-pyrrolo[3,4-b]pyridin-6-yl)piperidine-2,6-dione] | 141 | 
9 | NC(=O)c1c(-c2ccc(Oc3ccccc3)cc2)nn2c1NCC[C@H]2C1CCN(C2CN(CC3CN(c4ccc5c(c4)C(=O)N(C4CCC(=O)NC4=O)C5=O)C3)C2)CC1 (stereo partly drawn) [Compound 80, (7S)-7-(1-(1-((1-(2-(2,6-dioxopiperidin-3-yl)-1,3-dioxoisoindolin-5-yl)azetidin-3-yl)methyl)azetidin-3-yl)piperidin-4-yl)-2-(4-phenoxyphenyl)-4,5,6,7-tetrahydropyrazolo[1,5-a]pyrimidine-3-carboxamide] |  | 99.1
